Results published in ChEMBL document CHEMBL1130005, “Enantioselective synthesis and antiproliferative properties of an ilmofosine analog, 2'-(trimethylammonio)ethyl 3-(hexadecyloxy)-2-(methoxymethyl)propyl phosphate, on epithelial cancer cell growth” (J Med Chem, 1997).

What was measured:
Format in all cases: functional, cell-based
A-427 [1] = assay: Inhibition of large cell lung carcinoma (A427); settings: Homo sapiens
A549 [2] = assay: Inhibition of non-small-cell lung adenocarcinoma (A549); settings: Homo sapiens
MCF7 [3] = assay: Inhibition of proliferation of breast adenocarcinoma cell line MCF-7; settings: Homo sapiens
A-427 [4] = assay: Inhibition of large cell lung carcinoma (A427) after 48-h treatment; settings: Homo sapiens, A-427, 48 h
A549 [5] = assay: Inhibition of non-small-cell lung adenocarcinoma (A549) after 48-h treatment; settings: Homo sapiens, A549, 48 h
MCF7 [6] = assay: Inhibition of proliferative breast adenocarcinoma cell line MCF-7 after 48-h treatment; settings: Homo sapiens, MCF7, 48 h

| SMILES | IC50 (A-427 [1]) | IC50 (A549 [2]) | IC50 (MCF7 [3]) | IC50 (A-427 [4]) | IC50 (A549 [5]) | IC50 (MCF7 [6]) |
| --- | --- | --- | --- | --- | --- | --- |
| CCCCCCCCCCCCCCCCOC[C@@H](COC)COP(=O)([O-])OCC[N+](C)(C)C | > 20 µM | 10 µM | 2 µM | – | – | – |
| CCCCCCCCCCCCCCCCSCC(COC)COP(=O)([O-])OCC[N+](C)(C)C (racemic) [ILMOFOSINE] | 20 µM | 10 µM | 2 µM | – | – | – |
| CCCCCCCCCCCCCCCCOC[C@H](COC)COP(=O)([O-])OCC[N+](C)(C)C | – | – | – | 20 µM | 7.5 µM | 2 µM |
